According to publication PMC9569940, “Discovery and In Vivo Efficacy of Trace Amine-Associated Receptor 1 (TAAR1) Agonist 4-(2-Aminoethyl)-N-(3,5-dimethylphenyl)piperidine-1-carboxamide Hydrochloride (AP163) for the Treatment of Psychotic Disorders” (International Journal of Molecular Sciences, 2022):
Entries after “also recorded” stand apart in the source; their conditions may differ. Where a name gives a salt, the structure may show the parent alone.

What was measured:
TAAR1 = target: T1, TAAR1 (Homo sapiens, UniProt Q96RJ0); assay: BRET cAMP biosensor (EPAC) assay of TAAR1 agonistic activity in transiently transfected HEK-293 cells; type: cell-based; set-up: key to Agonistic Activity (class Inactive): Inactive: Producing less than 20% activation of TAAR1 relative to 1 μM tyramine hydrochloride; settings: for activation at 10 µM: HEK293, compound at 10 μM (footnote c); for activation at 10 µM / Agonistic Activity at 1 μM, %: compared to 1 μM tyramine hydrochloride (positive control), primary screening; for EC50 / EC50, μM: TAAR1 agonistic activity, concentration-response; for Agonistic Activity (class Inactive): primary screening at 1 μM or 10 μM, relative to 1 μM tyramine hydrochloride; for TAAR1 Activity (active / inactive, in words): agonistic activity in words; for Agonistic Activity at 1 μM, %: compound at 1 μM
T1 construct: expressed in transfected cells; host or cells: HEK-293 cells, transient transfection
T1 sequence (Q96RJ0 1-339): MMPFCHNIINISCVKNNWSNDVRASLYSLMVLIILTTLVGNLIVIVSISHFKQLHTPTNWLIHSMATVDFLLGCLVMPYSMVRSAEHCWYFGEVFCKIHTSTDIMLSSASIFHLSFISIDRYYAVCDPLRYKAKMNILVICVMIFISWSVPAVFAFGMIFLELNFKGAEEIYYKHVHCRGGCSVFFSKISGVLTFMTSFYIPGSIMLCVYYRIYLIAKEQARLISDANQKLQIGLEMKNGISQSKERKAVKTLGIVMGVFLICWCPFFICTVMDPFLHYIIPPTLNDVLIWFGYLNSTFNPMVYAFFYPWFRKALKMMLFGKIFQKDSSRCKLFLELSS
Method: Compounds 7–29 synthesized as described above (as well the initial hit compound 1 used as a comparator) were tested in the Bioluminescence Resonance Energy Transfer approach (BRET) assay using HEK-293 cells transiently transfected with cDNA for TAARs as well as cAMP BRET biosensor (EPAC) protein. The compounds were initially tested at 1 μM or 10 μM concentrations and those producing <20% activation of TAAR1 (relative to 1 μM tyramine hydrochloride) were not pursued further. The active compounds were further evaluated in a dose–response mode in order to determine their EC50 values.
The Bioluminescence Resonance Energy Transfer approach (BRET) has been used for functional activity experiments. HEK-293 cells were transiently transfected with cDNA for TAARs and cAMP BRET biosensor (EPAC) protein and then plated in a 96-well plate as described. All compounds were tested at the initial concentrations of 1 μM or 10 μM. Then, for active compounds, a concentration–response analysis was performed in order to calculate the EC50 values. Natural agonist of TAAR1 tyramine hydrochloride was used as a positive control.

[1] = test system: dopamine transporter knockout (DAT-KO) rats; assay: DAT-KO rat hyperlocomotion test; type: in vivo; settings: for Reduction in hyperlocomotion of DAT-KO rats: i.p., 90 min locomotion test, dose range 5–15 mg/kg for 18
Method: Compounds 9, 17–19 were evaluated in dopamine transporter knockout (DAT-KO) rats characterized with psychosis-like hyperlocomotion activity. The ability of compounds to reduce the hyperlocomotion in these genetically modified animals generally deemed as an adequate model of psychosis-like states and schizophrenia was expected to unveil the potential of these compounds as potential therapies for these psychiatric disorders.
Twelve Wistar dopamine transporter knockout (DAT-KO) female rats were utilized for assessment of drugs’ activity on hyperlocomotion. Animals were maintained on a 12/12 light/dark cycle at the room temperature maintained between 20 °C and 23 °C with a relative humidity maintained between 30% and 70%. Chow and water were provided ad libitum for the duration of the studies.
All compounds were dissolved in physiological saline (0.9% solution of NaCl) and intraperitoneally injected in volume 10 mL/kg immediately before locomotion testing.
Rats were intraperitoneally injected with a compound solution or vehicle (saline) and were immediately placed in Plexiglas boxes 40 cm × 40 cm × 40 cm for 90 min. Noldus EthoVision software was used to measure the distance moved by the animals.

Solubility = type: physicochemical; settings: reason for not progressing to in vivo tests

| Structure (SMILES) | activation at 10 µM (TAAR1) [%] | EC50 (TAAR1) [nM] | Agonistic Activity (class Inactive) (TAAR1) | also measured |
| --- | --- | --- | --- | --- |
| Cc1cccc(C(=O)N2CCC(CCN)CC2)c1 [Compound 25, (4-(2-Aminoethyl)piperidin-1-yl)(m-tolyl)methanone] | 41 | 634 | – | – |
| Cc1cc(NC(=O)N2CCC(CCN)CC2)ccc1F [Compound 16, 4-(2-Aminoethyl)-N-(4-fluoro-3-methylphenyl)piperidine-1-carboxamide hydrochloride] | 107 | 143 | – | – |
| COc1ccc(C)cc1NC(=O)N1CCC(CCN)CC1 [Compound 22, 4-(2-Aminoethyl)-N-(2-methoxy-5-methylphenyl)piperidine-1-carboxamide hydrochloride] | 84 | 1900 | – | – |
| Cc1ccc(NC(=O)N2CCC(CCN)CC2)cc1F.Cl [Compound 15, 4-(2-Aminoethyl)-N-(3-fluoro-4-methylphenyl)piperidine-1-carboxamide hydrochloride] | – | – | Inactive | EC50, μM (TAAR1): inactive |
| Cl.NCCC1CCN(C(=O)Nc2cccc(Cl)c2)CC1 [Compound 23, 4-(2-Aminoethyl)-N-(3-chlorophenyl)piperidine-1-carboxamide hydrochloride] | – | – | Inactive | – |
| Cc1cccc(NC(=O)N2CCC(CCN)CC2)c1.Cl [Compound 9, 4-(2-Aminoethyl)-N-(3-methylphenyl)piperidine-1-carboxamide hydrochloride] | – | 52 | – | TAAR1 Activity (active / inactive, in words) (TAAR1): Active; Agonistic Activity at 1 μM, % (TAAR1): 89%; Reduction in hyperlocomotion of DAT-KO rats [1]: absence of in vivo efficacy |
| Cl.NCCC1CCN(C(=O)Nc2ccc(F)cc2)CC1 [Compound 11, 4-(2-Aminoethyl)-N-(4-fluorophenyl)piperidine-1-carboxamide hydrochloride] | – | 206 | – | EC50, μM (TAAR1): submicromolar; Agonistic Activity at 1 μM, % (TAAR1): 84% |
| NCCC1CCN(C(=O)c2ccccc2)CC1 [Compound 24, (4-(2-Aminoethyl)piperidin-1-yl)(phenyl)methanone hydrochloride] | 31 | 635 | – | – |
| Cc1cc(C)cc(NC(=O)N2CCC(CCN)CC2)c1.Cl [Compound 18, 4-(2-Aminoethyl)-N-(3,5-dimethylphenyl)piperidine-1-carboxamide hydrochloride] | 85 | 112 | – | Effect on DAT-KO hyperlocomotion at 5 mg/kg ([1]; 5 mg/kg i.p., dynamics for 90 min, two-way ANOVA): did not reveal significant effect; Effect on DAT-KO hyperlocomotion at 10 mg/kg ([1]; 10 mg/kg i.p., 90 min, two-way ANOVA): significantly decreased hyperlocomotion; Effect on DAT-KO hyperlocomotion at 15 mg/kg ([1]; 15 mg/kg i.p., 90 min, two-way ANOVA): significantly decreased DAT-KO hyperlocomotion; Reduction in hyperlocomotion of DAT-KO rats ([1]; listed as 18 (AP163)): statistically significant, dose-dependent reduction; also recorded: significantly attenuated DAT-KO hyperlocomotion; Reduction in hyperlocomotion of DAT-KO rats ([1]; listed as AP163): statistically significant and dose-dependent reduction in hyperlocomotion |
| Cl.NCCC1CCN(S(=O)(=O)c2ccccc2)CC1 [Compound 26, 2-[1-(Phenylsulfonyl)piperidin-4-yl]ethanamine hydrochloride] | – | – | Inactive | – |
| Cc1ccc(NC(=O)N2CCC(CCN)CC2)cc1.Cl [Compound 7, 4-(2-Aminoethyl)-N-(4-methylphenyl)piperidine-1-carboxamide hydrochloride] | – | – | Inactive ^b | TAAR1 Activity (active / inactive, in words) (TAAR1): Inactive |
| Cl.NCCC1CCN(C(=O)Nc2cccc(C(F)(F)F)c2)CC1 [Compound 21, 4-(2-Aminoethyl)-N-(3-(trifluoromethyl)phenyl)piperidine-1-carboxamide hydrochloride] | 96 | 35 | – | Solubility (Solubility): poor solubility |
| Cc1cccc(NC(=O)N2CCC(CCN)CC2)c1C [Compound 20, 4-(2-Aminoethyl)-N-(2,3-dimethylphenyl)piperidine-1-carboxamide hydrochloride] | 82 | 914 | – | – |
| Cl.NCCC1CCN(S(=O)(=O)c2ccc(F)cc2)CC1 [Compound 27, 2-{1-[(4-Fluorophenyl)sulfonyl]piperidin-4-yl}ethanamine hydrochloride] | – | – | Inactive | – |
| Cl.NCCC1CCN(C(=O)Nc2cccc(F)c2)CC1 [Compound 8, 4-(2-Aminoethyl)-N-(3-fluorophenyl)piperidine-1-carboxamide hydrochloride] | – | – | Inactive | – |
| Cc1ccc(NC(=O)N2CCC(CCN)CC2)cc1C.Cl [Compound 17, 4-(2-Aminoethyl)-N-(3,4-dimethylphenyl)piperidine-1-carboxamide hydrochloride] | 84 | 33 | – | Reduction in hyperlocomotion of DAT-KO rats [1]: absence of in vivo efficacy |
| Cl.NCCC1CCN(C(=O)Nc2cc(F)ccc2F)CC1 [Compound 12, 4-(2-Aminoethyl)-N-(2,5-difluorophenyl)piperidine-1-carboxamide hydrochloride] | – | 273 | – | TAAR1 Activity (active / inactive, in words) (TAAR1): Active; Agonistic Activity at 1 μM, % (TAAR1): 75% |
| CN1CCC(CCN)CC1.Cl.Cl [Compound 29, 2-(1-Methylpiperidin-4-yl)ethan-1-amine dihydrochloride] | – | – | Inactive | TAAR1 Activity (active / inactive, in words) (TAAR1): inactivity |
| Cl.NCCC1CCN(C(=O)Nc2ccccc2)CC1 [Compound 1, 4-(2-Aminoethyl)-N-phenylpiperidine-1-carboxamide hydrochloride] | – | 507 | – | Agonistic Activity at 1 μM, % (TAAR1): 65% |
| Cc1ccc(C)c(NC(=O)N2CCC(CCN)CC2)c1.Cl [Compound 19, 4-(2-Aminoethyl)-N-(2,5-dimethylphenyl)piperidine-1-carboxamide hydrochloride] | 80 | 42 | – | Reduction in hyperlocomotion of DAT-KO rats [1]: absence of in vivo efficacy |
| Cl.NCCC1CCN(C(=O)Nc2ccc(F)cc2F)CC1 [Compound 13, 4-(2-Aminoethyl)-N-(2,4-difluorophenyl)piperidine-1-carboxamide hydrochloride] | – | – | Inactive | TAAR1 Activity (active / inactive, in words) (TAAR1): Inactive |
| Cc1ccccc1NC(=O)N1CCC(CCN)CC1.Cl [Compound 10, 4-(2-Aminoethyl)-N-(2-methylphenyl)piperidine-1-carboxamide hydrochloride] | – | – | Inactive | TAAR1 Activity (active / inactive, in words) (TAAR1): Inactive |
| Cc1ccc(S(=O)(=O)N2CCC(CCN)CC2)cc1.Cl [Compound 28, 2-{1-[(4-Methylphenyl)sulfonyl]piperidin-4-yl}ethanamine hydrochloride] | – | – | Inactive | – |
| Cl.NCCC1CCN(C(=O)Nc2cc(F)cc(F)c2)CC1 [Compound 14, 4-(2-Aminoethyl)-N-(3,5-difluorophenyl)piperidine-1-carboxamide hydrochloride] | – | – | Inactive | TAAR1 Activity (active / inactive, in words) (TAAR1): Inactive |
